The record followed here is ChEMBL document CHEMBL4396974, “Synthesis and evaluation of a novel quinoline-triazole analogs for antitubercular properties via molecular hybridization approach” (Bioorg Med Chem Lett, 2019).

The test system of this assay is Mycobacterium tuberculosis variant bovis. In words: Antimycobacterial activity against Mycobacterium bovis assessed as 90 percent growth inhibition measured after 120 hrs by turbidometric analysis. The format is functional.

Converted amounts (≈) assume the structure as drawn. The source made the active and inactive calls. No cut-off for these calls is given here.

Broadly, the MIC90 is the lowest concentration that inhibits either 90% of growth or 90% of the strains tested, depending on the study. For `CCCCCc1cn(C(c2ccccc2)c2cc3cc(Br)ccc3nc2OC)nn1` (configuration not stated), the MIC90 was 80.9 µM (≈ 37.7 µg/mL).
On to `COc1nc2ccc(Br)cc2cc1C(c1ccccc1)n1cc(-c2ccccc2F)nn1` (configuration not stated), for which the MIC90 result is “inactive”.
With `COc1nc2ccc(Br)cc2cc1C(c1ccccc1)n1cc(CCO)nn1` (configuration not stated) the figure was 133 µM (≈ 58.3 µg/mL); with `COc1nc2ccc(Br)cc2cc1C(c1ccccc1)n1cc(CO)nn1` (configuration not stated), 131 µM (≈ 55.7 µg/mL); with `COc1nc2ccc(Br)cc2cc1C(c1ccccc1)n1cc(CCCO)nn1` (configuration not stated), “inactive”.
`COc1nc2ccc(Br)cc2cc1C(c1ccccc1)n1cc(-c2ccc(F)cc2)nn1` (configuration not stated): the MIC90 entry is “inactive”.
With `CCCCc1cn(C(c2ccccc2)c2cc3cc(Br)ccc3nc2OC)nn1` (configuration not stated) the figure was 50.2 µM (≈ 22.7 µg/mL); with `COc1nc2ccc(Br)cc2cc1C(c1ccccc1)n1cc(C2CC2)nn1` (configuration not stated), “inactive”.
As for `CO[C@H]1/C=C/O[C@@]2(C)Oc3c(C)c(O)c4c(O)c(c(/C=N/N5CCN(C)CC5)c(O)c4c3C2=O)NC(=O)/C(C)=C\C=C\[C@H](C)[C@H](O)[C@@H](C)[C@@H](O)[C@@H](C)[C@H](OC(C)=O)[C@@H]1C` [RIFAMPIN], the MIC90 was 2.2 µM (≈ 1.81 µg/mL).
For `CCCCCCc1cn(C(c2ccccc2)c2cc3cc(Br)ccc3nc2OC)nn1` (configuration not stated), the MIC90 turned out to be 44.4 µM (≈ 21.3 µg/mL).
For `COc1nc2ccc(Br)cc2cc1C(c1ccccc1)n1cc(CCCCCO)nn1` (configuration not stated) the value was 59.6 µM (≈ 28.7 µg/mL); for `CCCc1cn(C(c2ccccc2)c2cc3cc(Br)ccc3nc2OC)nn1` (configuration not stated), 45.2 µM (≈ 19.8 µg/mL); for `COc1nc2ccc(Br)cc2cc1C(c1ccccc1)n1cc(-c2cccc(F)c2)nn1` (configuration not stated), 31.4 µM (≈ 15.3 µg/mL).
For `CCCCCCCCc1cn(C(c2ccccc2)c2cc3cc(Br)ccc3nc2OC)nn1` (configuration not stated), the MIC90 turned out to be 34.9 µM (≈ 17.7 µg/mL).
Take `CCCCCCCc1cn(C(c2ccccc2)c2cc3cc(Br)ccc3nc2OC)nn1` (configuration not stated): the MIC90 worked out at 71.9 µM (≈ 35.5 µg/mL).
As for `COc1nc2ccc(Br)cc2cc1C(c1ccccc1)n1cc(-c2ccccc2C(F)(F)F)nn1` (configuration not stated), the MIC90 was 174 µM (≈ 93.8 µg/mL).
With `COc1nc2ccc(Br)cc2cc1[C@@H](c1ccccc1)[C@@](O)(CCN(C)C)c1cccc2ccccc12` [BEDAQUILINE] the figure was 0.15 µM (≈ 0.0833 µg/mL).
For `COc1nc2ccc(Br)cc2cc1C(c1ccccc1)n1cc(-c2ccccc2)nn1` (configuration not stated) the value was 161 µM (≈ 75.7 µg/mL); for `COc1nc2ccc(Br)cc2cc1C(c1ccccc1)n1cc(-c2ccc(Br)cc2)nn1` (configuration not stated), 49 µM (≈ 27 µg/mL).
For `NNC(=O)c1ccncc1` [ISONIAZID] the value was 12.5 µM (≈ 1.72 µg/mL); for `COc1nc2ccc(Br)cc2cc1C(c1ccccc1)n1cc(-c2ccc(OC(F)(F)F)cc2)nn1` (configuration not stated), 41 µM (≈ 22.8 µg/mL); for `CCOC(=O)c1cn(C(c2ccccc2)c2cc3cc(Br)ccc3nc2OC)nn1` (configuration not stated), “inactive”.
